Assay results as given in patent US10918645B2 (LIFEARC, priority 2016, dated 2021).

What was measured:
Conditions in all cases: 1 μM inhibitor concentration
YES1 = YES1 (Homo sapiens (Human), UniProt P07947); assay: YES1 kinase selectivity assay; format: biochemical
Experimental: YES1 (5-20 mU diluted in 50 mM Tris pH 7.5, 0.1 mM EGTA, 1 mg/ml BSA) is assayed against a substrate peptide (Poly Glut Tyr) in a final volume of 25.5 μl containing 50 mM Tris pH 7.5, 1 mg/ml substrate peptide, 10 mM magnesium acetate and 0.02 mM [33P-g-ATP] (50-1000 cpm/pmole) and incubated for 30 min at room temperature. Assays are stopped by addition of 5 μl of 0.5 M (3%) orthophosphoric acid and then harvested onto P81 Unifilter plates with a wash buffer of 50 mM orthophosphoric acid.

ULK1 = ULK1 (Homo sapiens (Human), UniProt O75385); assay: ULK1 kinase selectivity assay; format: biochemical
Sequence of ULK1 (O75385 whole entry, species assumed): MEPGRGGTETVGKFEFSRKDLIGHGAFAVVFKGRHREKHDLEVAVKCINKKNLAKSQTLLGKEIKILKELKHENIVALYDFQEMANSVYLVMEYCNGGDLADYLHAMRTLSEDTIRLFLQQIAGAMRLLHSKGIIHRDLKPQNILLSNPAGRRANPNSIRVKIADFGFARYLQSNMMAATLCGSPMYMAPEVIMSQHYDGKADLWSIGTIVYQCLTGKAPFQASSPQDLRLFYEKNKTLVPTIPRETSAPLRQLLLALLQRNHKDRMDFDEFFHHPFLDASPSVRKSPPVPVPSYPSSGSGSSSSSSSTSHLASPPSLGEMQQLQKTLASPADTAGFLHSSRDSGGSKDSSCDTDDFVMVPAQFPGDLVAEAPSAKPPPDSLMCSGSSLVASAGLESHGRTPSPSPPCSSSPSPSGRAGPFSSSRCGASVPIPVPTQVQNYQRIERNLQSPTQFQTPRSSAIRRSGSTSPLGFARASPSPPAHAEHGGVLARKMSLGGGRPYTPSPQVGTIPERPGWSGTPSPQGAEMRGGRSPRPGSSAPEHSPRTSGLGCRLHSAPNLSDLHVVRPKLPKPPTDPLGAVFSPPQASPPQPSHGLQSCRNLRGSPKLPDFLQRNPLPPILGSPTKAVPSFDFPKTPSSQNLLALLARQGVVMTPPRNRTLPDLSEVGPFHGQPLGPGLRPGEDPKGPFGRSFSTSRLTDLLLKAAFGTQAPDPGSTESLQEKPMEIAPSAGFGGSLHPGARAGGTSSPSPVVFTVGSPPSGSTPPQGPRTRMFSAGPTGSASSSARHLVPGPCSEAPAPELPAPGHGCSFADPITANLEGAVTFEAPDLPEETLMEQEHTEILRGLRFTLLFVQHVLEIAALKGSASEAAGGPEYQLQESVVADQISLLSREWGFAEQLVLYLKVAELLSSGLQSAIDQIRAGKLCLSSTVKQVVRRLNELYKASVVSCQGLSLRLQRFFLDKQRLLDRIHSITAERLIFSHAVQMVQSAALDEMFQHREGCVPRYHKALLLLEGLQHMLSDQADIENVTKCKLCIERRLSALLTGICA

AMPK(hum) = assay: AMPK kinase selectivity assay; format: biochemical, human
Experimental: AMPK (5-20 mU diluted in 50 mM Hepes pH 7.5, 1 mM DTT, 0.02% Brij35) is assayed against SAMS substrate peptide ([…]) in a final volume of 25.5 μl containing 50 mM Hepes pH 7.5, 1 mM DTT, 0.02% Brij35, 0.4 mM SAMS peptide, 0.196 mM AMP, 10 mM magnesium acetate and 0.05 mM [33P-g-ATP] (50-1000 cpm/pmole) and incubated for 30 min at room temperature. Assays are stopped by addition of 5 μl of 0.5 M (3%) orthophosphoric acid and then harvested onto P81 Unifilter plates with a wash buffer of 50 mM orthophosphoric acid.

TTK = TTK (Homo sapiens (Human), UniProt P33981); assay: TTK kinase selectivity assay; format: biochemical
Sequence of TTK (P33981 whole entry, species assumed): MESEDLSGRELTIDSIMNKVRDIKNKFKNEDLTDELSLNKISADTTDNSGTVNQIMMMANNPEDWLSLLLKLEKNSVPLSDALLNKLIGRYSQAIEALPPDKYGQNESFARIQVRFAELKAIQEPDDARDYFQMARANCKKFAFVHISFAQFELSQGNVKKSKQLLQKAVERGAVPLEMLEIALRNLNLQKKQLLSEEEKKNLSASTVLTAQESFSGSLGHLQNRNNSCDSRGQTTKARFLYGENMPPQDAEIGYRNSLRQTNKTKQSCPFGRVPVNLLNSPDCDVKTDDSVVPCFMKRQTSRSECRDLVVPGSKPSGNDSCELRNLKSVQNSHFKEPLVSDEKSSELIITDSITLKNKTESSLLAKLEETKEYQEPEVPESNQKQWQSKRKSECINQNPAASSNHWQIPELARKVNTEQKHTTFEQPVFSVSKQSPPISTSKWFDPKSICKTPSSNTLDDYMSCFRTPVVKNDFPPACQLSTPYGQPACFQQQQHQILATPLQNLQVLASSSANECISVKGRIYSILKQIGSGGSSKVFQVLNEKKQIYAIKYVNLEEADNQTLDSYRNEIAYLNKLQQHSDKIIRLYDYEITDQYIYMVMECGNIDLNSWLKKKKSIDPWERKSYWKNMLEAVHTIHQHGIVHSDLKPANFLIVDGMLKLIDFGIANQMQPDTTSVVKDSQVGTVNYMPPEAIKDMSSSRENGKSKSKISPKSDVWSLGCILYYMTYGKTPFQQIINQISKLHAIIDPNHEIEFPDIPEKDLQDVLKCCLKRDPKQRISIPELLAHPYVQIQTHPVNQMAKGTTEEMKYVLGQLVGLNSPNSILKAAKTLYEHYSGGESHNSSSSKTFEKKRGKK
Experimental: TTK (5-20 mU diluted in 50 mM Tris pH 7.5, 0.1 mM EGTA, 0.1% 0-mercaptoethanol, 1 mg/ml BSA) is assayed against […] in a final volume of […] containing 50 mM Tris pH 7.5, 0.1 mM EGTA, 0.3 mM […], 10 mM magnesium acetate and 0.02 mM [33P-γ-ATP] (50-1000 cpm/pmole) and incubated for 30 min at room temperature. Assays are stopped by addition of 5 μl of 0.5 M (3%) orthophosphoric acid and then harvested onto P81 Unifilter plates with a wash buffer of 50 mM orthophosphoric acid.

ERK2 = ERK2 (Homo sapiens (Human), UniProt P28482); assay: ERK2 kinase selectivity assay; format: biochemical
Sequence of ERK2 (P28482 whole entry, species assumed): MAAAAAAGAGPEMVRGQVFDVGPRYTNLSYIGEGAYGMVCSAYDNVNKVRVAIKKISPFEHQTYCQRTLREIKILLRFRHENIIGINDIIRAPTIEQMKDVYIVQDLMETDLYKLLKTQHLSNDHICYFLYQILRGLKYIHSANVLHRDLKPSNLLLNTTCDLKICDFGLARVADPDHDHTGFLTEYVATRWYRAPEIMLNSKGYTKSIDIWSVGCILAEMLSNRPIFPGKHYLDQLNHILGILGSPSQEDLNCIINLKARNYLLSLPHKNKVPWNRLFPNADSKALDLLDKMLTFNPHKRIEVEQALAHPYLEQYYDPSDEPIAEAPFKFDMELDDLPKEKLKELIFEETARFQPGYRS
Experimental: MAPK/ERK2 (5-20 mU diluted in 50 mM Tris pH 7.5, 0.1 mM EGTA, 0.1 mM Na3VO4, 0.1% b-mercaptoethanol, 1 mg/ml BSA) is assayed against MBP in a final volume of 25.5 μl in 25 mM Tris pH 7.5, 0.1 mM EGTA, 0.33 mg/ml MBP, 10 mM magnesium acetate and 0.05 mM [33P-g-ATP](500-1000 cpm/pmole) and incubated for 30 min at room temperature. Assays are stopped by addition of 5 μl of 0.5 M (3%) orthophosphoric acid and then harvested onto P81 Unifilter plates with a wash buffer of 50 mM orthophosphoric acid.

EPH-B3 = EPH-B3 (Homo sapiens (Human), UniProt P54753); assay: EPH-B3 kinase selectivity assay; format: biochemical
Sequence of EPH-B3 (P54753 34-998, species assumed): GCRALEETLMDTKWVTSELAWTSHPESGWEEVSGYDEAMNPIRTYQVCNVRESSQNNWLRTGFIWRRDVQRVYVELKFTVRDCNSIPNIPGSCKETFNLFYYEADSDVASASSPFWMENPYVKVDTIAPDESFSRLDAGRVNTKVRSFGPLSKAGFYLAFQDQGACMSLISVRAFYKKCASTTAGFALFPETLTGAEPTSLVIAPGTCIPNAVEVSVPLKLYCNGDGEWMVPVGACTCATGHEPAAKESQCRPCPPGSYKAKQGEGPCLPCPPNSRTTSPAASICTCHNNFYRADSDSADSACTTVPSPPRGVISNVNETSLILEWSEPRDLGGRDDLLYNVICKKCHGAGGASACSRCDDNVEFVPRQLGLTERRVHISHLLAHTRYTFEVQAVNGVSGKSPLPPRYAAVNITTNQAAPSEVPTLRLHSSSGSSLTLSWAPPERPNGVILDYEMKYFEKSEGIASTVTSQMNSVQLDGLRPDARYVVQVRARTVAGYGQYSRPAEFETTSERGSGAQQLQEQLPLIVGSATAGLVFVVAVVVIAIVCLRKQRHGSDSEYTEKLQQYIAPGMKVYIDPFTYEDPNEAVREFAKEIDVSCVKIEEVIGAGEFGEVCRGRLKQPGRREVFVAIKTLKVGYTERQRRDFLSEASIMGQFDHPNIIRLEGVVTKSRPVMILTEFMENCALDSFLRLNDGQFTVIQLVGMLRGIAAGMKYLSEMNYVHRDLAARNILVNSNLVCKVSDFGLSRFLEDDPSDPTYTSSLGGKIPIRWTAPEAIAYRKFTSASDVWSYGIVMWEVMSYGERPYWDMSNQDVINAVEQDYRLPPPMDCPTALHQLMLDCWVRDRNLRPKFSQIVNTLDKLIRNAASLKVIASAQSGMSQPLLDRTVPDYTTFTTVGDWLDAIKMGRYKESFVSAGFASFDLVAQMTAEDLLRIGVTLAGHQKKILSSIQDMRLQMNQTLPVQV
Experimental: EPH-B3 (5-20 mU diluted in 50 mM Tris pH 7.5, 0.1 mM EGTA, 1 mg/ml BSA) is assayed against a substrate peptide (Poly Glut Tyr) in a final volume of 25.5 μl containing 50 mM Tris pH 7.5, 1 mg/ml substrate peptide, 10 mM magnesium acetate and 0.005 mM [33P-g-ATP] (50-1000 cpm/pmole) and incubated for 30 min at room temperature. Assays are stopped by addition of 5 μl of 0.5 M (3%) orthophosphoric acid and then harvested onto P81 Unifilter plates with a wash buffer of 50 mM orthophosphoric acid.

p38aMAPK = p38aMAPK (Homo sapiens (Human), UniProt Q16539); assay: p38aMAPK kinase selectivity assay; format: biochemical
Sequence of p38aMAPK (Q16539 whole entry): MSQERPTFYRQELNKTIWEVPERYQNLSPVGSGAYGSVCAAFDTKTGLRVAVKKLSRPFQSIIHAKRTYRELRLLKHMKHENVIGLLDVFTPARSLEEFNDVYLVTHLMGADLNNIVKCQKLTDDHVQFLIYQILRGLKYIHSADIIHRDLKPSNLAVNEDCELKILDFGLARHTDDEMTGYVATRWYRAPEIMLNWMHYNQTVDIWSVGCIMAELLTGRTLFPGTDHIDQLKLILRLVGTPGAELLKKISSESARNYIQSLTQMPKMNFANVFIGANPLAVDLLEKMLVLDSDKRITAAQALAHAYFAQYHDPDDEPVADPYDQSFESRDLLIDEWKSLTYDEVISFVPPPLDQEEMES
Experimental: SAPK 2a/p38 (5-20 mU diluted in 50 mM Tris pH 7.5, 0.1 mM EGTA, 0.1 mM Na3VO4, 0.1% b-mercaptoethanol, 1 mg/ml BSA) is assayed against MBP in a final volume of 25.5 μl containing 25 mM Tris pH 7.5, 0.1 mM EGTA, 0.33 mg/ml MBP, 10 mM magnesium acetate and 0.05 mM [33P-g-ATP] (50-1000 cpm/pmole) and incubated for 30 min at room temperature. Assays are stopped by addition of 5 μl of 0.5 M (3%) orthophosphoric acid and then harvested onto P81 Unifilter plates with a wash buffer of 50 mM orthophosphoric acid.

PKBa = PKBa (Homo sapiens (Human), UniProt P31749, S473D); assay: PKBa kinase selectivity assay; format: biochemical
Sequence of PKBa (P31749 118-480 S473D): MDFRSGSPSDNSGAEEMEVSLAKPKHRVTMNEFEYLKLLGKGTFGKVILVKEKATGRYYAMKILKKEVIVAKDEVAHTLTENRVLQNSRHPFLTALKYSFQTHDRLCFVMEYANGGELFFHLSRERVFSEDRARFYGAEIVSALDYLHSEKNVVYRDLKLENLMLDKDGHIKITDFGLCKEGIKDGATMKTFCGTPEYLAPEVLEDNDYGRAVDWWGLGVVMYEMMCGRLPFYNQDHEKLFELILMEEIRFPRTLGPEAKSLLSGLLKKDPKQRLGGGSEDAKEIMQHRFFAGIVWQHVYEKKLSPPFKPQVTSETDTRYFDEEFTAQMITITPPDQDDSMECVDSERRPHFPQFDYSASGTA
Experimental: ΔPH-PKBa-S473D (5-20 mU diluted in 50 mM Tris pH 7.5, 0.1 mM EGTA, 0.1% b-mercaptoethanol, 1 mg/ml BSA) is assayed against a modified Crosstide peptide […] in a final volume of 25.5 μl containing 50 mM Tris pH 7.5, 0.05% b-mercaptoethanol, 30 μM substrate peptide, 10 mM magnesium acetate and 0.005 mM [33P-g-ATP](50-1000 cpm/pmole) and incubated for 30 min at room temperature. Assays are stopped by addition of 5 μl of 0.5 M (3%) orthophosphoric acid and then harvested onto P81 Unifilter plates with a wash buffer of 50 mM orthophosphoric acid.

CSK = CSK (Homo sapiens (Human), UniProt P41240); assay: CSK kinase selectivity assay; format: biochemical
Sequence of CSK (P41240 whole entry, species assumed): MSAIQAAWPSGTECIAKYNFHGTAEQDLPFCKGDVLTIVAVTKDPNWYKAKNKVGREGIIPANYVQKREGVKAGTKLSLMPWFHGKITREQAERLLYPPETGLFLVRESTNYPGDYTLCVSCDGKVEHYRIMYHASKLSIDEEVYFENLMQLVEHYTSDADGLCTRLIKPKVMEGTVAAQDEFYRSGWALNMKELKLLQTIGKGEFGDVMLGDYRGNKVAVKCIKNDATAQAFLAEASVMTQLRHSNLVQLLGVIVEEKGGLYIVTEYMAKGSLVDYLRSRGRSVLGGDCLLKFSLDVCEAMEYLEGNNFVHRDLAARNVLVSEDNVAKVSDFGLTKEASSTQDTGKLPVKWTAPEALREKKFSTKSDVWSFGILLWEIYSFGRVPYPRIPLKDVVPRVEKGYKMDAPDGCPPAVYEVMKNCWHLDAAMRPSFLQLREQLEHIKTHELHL
Experimental: CSK (5-20 mU diluted in 20 mM MOPS pH7.5, 1 mM EDTA, 0.01% Brij35, 5% glycerol, 0.1% b-mercaptoethanol, 1 mg/ml BSA) is assayed against Cdc2 peptide ([…]) in a final volume of 25.5 μl containing 8 mM MOPS pH7.0, 0.2 mM EDTA, Cdc2 peptide (0.25 mM), 10 mM magnesium acetate and 0.02 mM [33P-g-ATP](500-1000 cpm/pmole) and incubated for 30 min at room temperature Assays are stopped by addition of 5 μl of 0.5 M (3%) orthophosphoric acid and then harvested onto P81 Unifilter plates with a wash buffer of 50 mM orthophosphoric acid.

Sequence of YES1 (P07947 whole entry, species assumed): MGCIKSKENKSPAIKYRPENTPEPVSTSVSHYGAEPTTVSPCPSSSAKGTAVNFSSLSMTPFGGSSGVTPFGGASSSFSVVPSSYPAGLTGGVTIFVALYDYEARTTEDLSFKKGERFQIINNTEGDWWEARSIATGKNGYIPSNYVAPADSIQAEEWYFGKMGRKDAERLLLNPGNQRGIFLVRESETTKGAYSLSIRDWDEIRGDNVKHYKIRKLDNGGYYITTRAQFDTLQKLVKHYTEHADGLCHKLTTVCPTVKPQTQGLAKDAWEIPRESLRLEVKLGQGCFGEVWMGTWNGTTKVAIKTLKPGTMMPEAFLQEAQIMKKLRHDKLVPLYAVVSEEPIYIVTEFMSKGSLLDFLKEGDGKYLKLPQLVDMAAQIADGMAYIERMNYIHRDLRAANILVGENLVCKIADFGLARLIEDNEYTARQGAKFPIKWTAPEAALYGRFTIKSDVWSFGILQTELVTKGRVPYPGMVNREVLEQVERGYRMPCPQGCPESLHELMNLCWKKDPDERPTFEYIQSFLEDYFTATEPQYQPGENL

SMILES | percentage inhibition of YES1 (YES1) | percentage inhibition of ULK1 (ULK1) | percentage inhibition of AMPK(hum) (AMPK(hum)) | percentage inhibition of TTK (TTK) | percentage inhibition of ERK2 (ERK2) | percentage inhibition of EPH-B3 (EPH-B3) | percentage inhibition of p38aMAPK (p38aMAPK) | percentage inhibition of PKBa (PKBa) | percentage inhibition of CSK (CSK)
c1cc2[nH]nc3c2c(n1)N(C1CCC1)CCC3 [Example 22, 6-cyclobutyl-6,7,8,9-tetrahydro-2H-1,2,5,6-tetraazabenzo[cd]azulene] | 0 percentage | 14 percentage | 16 percentage | 0 percentage | 0 percentage | 0 percentage | 4 percentage | 3 percentage | 1 percentage
c1cc2[nH]nc3c2c(n1)N(C1CCCC1)CCC3 [Example 23, 6-cyclopentyl-6,7,8,9-tetrahydro-2H-1,2,5,6-tetraazabenzo[cd]azulene] | 0 percentage | 0 percentage | – | 0 percentage | 0 percentage | 0 percentage | 0 percentage | 0 percentage | 0 percentage
c1cc2[nH]nc3c2c(n1)N(C1CCOCC1)CCC3 [Example 29, 6-(tetrahydro-2H-pyran-4-yl)-6,7,8,9-tetrahydro-2H-1,2,5,6-tetraazabenzo[cd]azulene] | 0 percentage | 5 percentage | 6 percentage | 2 percentage | 0 percentage | 0 percentage | 0 percentage | 0 percentage | 0 percentage
CN1CCC(N2Cc3ccccc3-c3n[nH]c4ccnc2c34)CC1 [Example 55] | 16 percentage | 20 percentage | 64 percentage | 35 percentage | 0 percentage | 12 percentage | 6 percentage | 1 percentage | 0 percentage
CC(C)n1ncc2c1CN(C1CCN(C)CC1)c1nccc3[nH]nc-2c13 [Example 68] | 5 percentage | 30 percentage | 32 percentage | 2 percentage | 11 percentage | 5 percentage | 0 percentage | 0 percentage | 0 percentage
